Key:
Assay type in all cases: cell-based
[1] = system: Sp protein interactions with VEGFR1 promoter sequences; test: Gel mobility shift of Panc-1 nuclear extracts with VEGFR1 32P and GC/SP 32P; conditions: nuclear extracts of Panc-1 cells treated with 50 μM for 48 h
Method: The specific Sp protein bands and antibody supershifted complexes are indicated with arrows.
Vascular endothelial growth factor and VEGFR1 oligonucleotides are synthesized and annealed, and 5 pmol aliquots are 5′-end-labeled using T4 kinase and [y-^32P]ATP. After the reaction sample was incubated 20 min on ice, and antibodies against Sp1, Sp3, and Sp4 proteins are added and incubated another 20 min on ice.
FIGS. 16A and 16B compare the gel mobility shift and antibody supershift patterns of nuclear extracts from Panc-1 cells bound to the proximal region of the VEGFR1 promoter containing both GC-rich and Egr-1 sites (VEGFR1^32P) or GC-rich sites alone (GC/SP^32P).

[2] = system: SEG-1 esophageal cancer cells; test: Western blot of Sp and Sp-dependent proteins in SEG-1 esophageal cancer cells; conditions: SEG-1 cells, 25-100 μM
Method: Cells are washed once with phosphate buffered saline PBS and collected by scraping in 200 μL of lysis buffer [50 mM HEPES, 0.5M sodium chloride, 1.5 mM magnesium chloride, 1 mM EGTA, 10% (v/v) glycerol, 1% Triton X-100, 5 μL/ml of Protease Inhibitor Cocktail (Sigma)]. The lysates from the cells are incubated on ice for 1 hr with intermittent vortexing followed by centrifugation at 40,000 g for 10 min at 4° C. Equal amounts of protein (60 μg) from each treatment group are diluted with loading buffer, boiled and loaded onto 10 and 12.5% SDS-polyacrylamide gel. For vascular endothelial growth factor immunoblots, 100 μg of protein are used. Samples are electrophoresed, transferred to membranes, and proteins detected by incubation with polyclonal primary antibodies Sp1, Sp3, Sp4, HDAC, VEGF (a-20), c-Met, surviving, VEGF, cleaved PARP, and β-tubulin (H-235) followed by blotting with appropriate horseradish peroxidase-conjugated secondary antibody as previously described (Abdelrahim et al, 2004). After autoradiography, band intensities are determined by a scanning laser densitometer (Sharp Electronics Corporation, Mahwah, N.J.) using ZERO-D SCANALYTICS software (Scanalytics Corporation, Billerica, Mass.).

[3] = system: VEGF mRNA; test: VEGF mRNA levels in Panc-1 cells, semi-quantitative RT-PCR

In the case of Cc1c(Cl)cccc1Nc1ccccc1C(=O)O [tolfenamic acid], the “Sp1, Sp3, and Sp4-DNA retarded band intensity with VEGFR1 32P and GC/SP 32P” value [1] is reported as “retarded band intensity was markedly decreased”, the “apoptosis as shown by PARP cleavage” value [2] is reported as “induced apoptosis” and the “expression of Sp-dependent proteins VEGF, survivin, and c-Met” value [2] is reported as “decreased expression of Sp-dependent proteins vascular endothelial growth factor (VEGF), survivin, and c-Met”. The “protein expression of Sp1, Sp3, and Sp4” value [2] was “decreased protein expression of Sp1, Sp3, and Sp4”, the “decrease of vascular endothelial growth factor mRNA levels” value ([3]; 50 μM, 24 hours, compared to DMSO) was “greater than 60%” and the “VEGF mRNA stability” value ([3]; actinomycin D alone or with 50 μM tolfenamic acid, up to 4.5 hr) was “decreased at similar rates”.
